Numbered stars: 1 amine (or outer) side, 2 acyl side, 3 side chain; on linkers, the order of the positions; unused ones are H or OH. Bridge positions count the residues as written; N and C are the ends. Square brackets hold non-standard residues; d marks the D form. Peptide text beside a SMILES is read from it. * marks the point of attachment. C20 diacid = O=C(O)CCCCCCCCCCCCCCCCCCC(=O)*; γGlu = O=C(O)[C@H](CCC(=O)[*:2])N[*:1]; NMeI = CC[C@H](C)[C@H](NC)C(=O)O; Sar = CNCC(=O)O
What was measured:
[1] = target: T1, human calcitonin receptor (hCTR2) (Homo sapiens, UniProt P30988); test: hCTR2 assay: induction of cAMP (AlphaScreen cAMP Assay kit) in COS7 cells expressing hCTR2; assay type: cell-based; details: cAMP induction in COS7 cells expressing hCTR2; average of a minimum of 3 determinations; read-out: hCTR2 EC50
T1 construct: expressed in transfected cells
T1 sequence (P30988 25-474): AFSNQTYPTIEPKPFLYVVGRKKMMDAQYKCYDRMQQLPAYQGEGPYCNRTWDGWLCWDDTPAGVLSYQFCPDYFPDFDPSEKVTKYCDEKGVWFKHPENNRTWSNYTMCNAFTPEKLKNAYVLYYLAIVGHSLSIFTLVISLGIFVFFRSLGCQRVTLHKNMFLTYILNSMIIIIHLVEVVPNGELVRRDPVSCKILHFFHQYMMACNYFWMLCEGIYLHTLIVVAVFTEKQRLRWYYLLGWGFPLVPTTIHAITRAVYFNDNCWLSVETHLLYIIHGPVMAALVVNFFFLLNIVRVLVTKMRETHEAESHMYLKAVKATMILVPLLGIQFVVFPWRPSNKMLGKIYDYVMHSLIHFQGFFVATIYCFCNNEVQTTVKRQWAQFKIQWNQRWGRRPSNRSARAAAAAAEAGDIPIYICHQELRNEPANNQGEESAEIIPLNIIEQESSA
Procedure, shortened: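 COS7 stable hCTR2 clone (RAMP-free); peptide dose-response 15 min 37° C in Tyrode pH 7.4 + 100 µM IBMX + 0.1% casein; lysis 10 min RT; AlphaScreen cAMP; 4PL fit.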

[2] = target: T2, human amylin receptor 3 (hAMYR3) consisting of hCTR2 co-expressed with human Receptor Activity Modifying Protein 3 (hRAMP3) (Homo sapiens, UniProt O60896+P30988); test: hAMYR3 assay: induction of cAMP (AlphaScreen cAMP Assay kit) in COS7 cells expressing hAMYR3; assay type: cell-based; details: cAMP induction in COS7 cells expressing hAMYR3; average of a minimum of 3 determinations; read-out: hAMY R3 EC50
T2 construct: expressed in transfected cells
T2 sequence (P30988 25-474): T1 sequence (P30988 25-474)
T2 sequence (O60896 24-148 partner): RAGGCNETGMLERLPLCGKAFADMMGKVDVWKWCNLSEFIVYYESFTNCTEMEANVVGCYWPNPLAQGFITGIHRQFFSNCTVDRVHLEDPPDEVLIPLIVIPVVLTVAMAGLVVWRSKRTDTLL
Procedure, shortened: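 Stable COS7 clone co-expressing hCTR2 and hRAMP3, stimulated 15 min at 37° C with increasing peptide in Tyrode buffer pH 7.4 with 100 µM IBMX and 0.1% casein. cAMP measured by AlphaScreen after lysis; EC50 and % efficacy versus pramlintide from 4PL fit.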

[3] = Solubility assessment (turbidity absorbance at 325 nm); assay type: physicochemical; details: stock 2 mg/ml diluted 1:1, ambient temperature (typically 25°C), n=1; for Solubility, Acetate buffer pH 4: 100 mM acetate buffer pH 4.0; for Solubility, Acetate buffer pH 5: 100 mM acetate buffer pH 5.0; for Solubility, Histidine buffer pH 6: 100 mM histidine buffer pH 6.0; for Solubility, Histidine buffer pH 7: 100 mM histidine buffer pH 7.0; for Solubility, Phosphate buffer pH 6: 100 mM phosphate buffer pH 6.0; for Solubility, Phosphate buffer pH 7: 100 mM phosphate buffer pH 7.0; for Solubility, Phosphate buffer pH 7.5: 100 mM phosphate buffer pH7.5
Procedure, shortened: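 Stock 2 mg/ml peptide, H2O/HCl pH 2.5; 1:1 into 100 mM buffers: acetate pH 4.0/5.0, His pH 6.0/7.0, phosphate pH 6.0/7.0/7.5. A280 + A325, ~25°C, n=1. Soluble ≥ 1 mg/ml if A325 ≤ 0.02.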

EC50 [1]	EC50 [2]	Solubility, Acetate buffer pH 4 [3]	Solubility, Acetate buffer pH 5 [3]	Solubility, Histidine buffer pH 6 [3]	Solubility, Histidine buffer pH 7 [3]	Solubility, Phosphate buffer pH 6 [3]	Solubility, Phosphate buffer pH 7 [3]	Solubility, Phosphate buffer pH 7.5 [3]	SMILES
0.072 nM	0.16 nM	II (II indicates solubility ≤ 1 mg/ml)	SS (SS indicates solubility ≥ 1mg/ml)	SS (SS indicates solubility ≥ 1mg/ml)	SS (SS indicates solubility ≥ 1mg/ml)	SS (SS indicates solubility ≥ 1mg/ml)	SS (SS indicates solubility ≥ 1mg/ml)	SS (SS indicates solubility ≥ 1mg/ml)	CC[C@H](C)[C@@H](C(=O)N[C@@H](CC(C)C)C(=O)N[C@@H](CO)C(=O)N[C@@H](CO)C(=O)N[C@H](C(=O)N[C@@H](CC(=O)O)C(=O)N[C@H](C(=O)NCC(=O)N[C@@H](CO)C(=O)N[C@@H](CC(=O)O)C(=O)N[C@H](C(=O)N1CCC[C@H]1C(N)=O)[C@@H](C)O)C(C)C)[C@@H](C)O)N(C)C(=O)[C@H](C)NC(=O)CN(C)C(=O)[C@H](Cc1ccccc1)NC(=O)[C@H](CO)NC(=O)[C@H](CO)NC(=O)[C@H](CCCNC(=N)N)NC(=O)[C@H](Cc1c[nH]cn1)NC(=O)[C@H](CC(C)C)NC(=O)[C@H](Cc1ccccc1)NC(=O)[C@H](CCC(=O)O)NC(=O)[C@H](C)NC(=O)[C@H](CC(C)C)NC(=O)[C@H](CCCNC(=N)N)NC(=O)[C@H](CC(=O)O)NC(=O)[C@@H](NC(=O)[C@H](C)NC(=O)[C@@H]1CSSC[C@H](NC(=O)[C@H](Cc2c[nH]c3ccccc23)NC(=O)CC[C@H](NC(=O)CCCCCCCCCCCCCCCCCCC(=O)O)C(=O)O)C(=O)NCC(=O)N[C@@H]([C@@H](C)O)C(=O)N[C@@H](C)C(=O)N[C@@H]([C@@H](C)O)C(=O)N1)[C@@H](C)O [Compound 157, [19CD]-isoGlu-WC()GTATC()ATDRLAEFLHRSSF-Gly(Me)-A-Ile(Me)-LSSTDVGSDTP-NH2] ({C20 diacid-γGlu}-WCGTATCATDRLAEFLHRSSF[Sar]A[NMeI]LSSTDVGSDTP-NH2; disulfide 2-7)
0.048 nM	0.11 nM	SS (SS indicates solubility ≥ 1mg/ml)	SS (SS indicates solubility ≥ 1mg/ml)	SS (SS indicates solubility ≥ 1mg/ml)	SS (SS indicates solubility ≥ 1mg/ml)	SS (SS indicates solubility ≥ 1mg/ml)	SS (SS indicates solubility ≥ 1mg/ml)	SS (SS indicates solubility ≥ 1mg/ml)	CC[C@H](C)[C@@H](C(=O)N[C@@H](CC(C)C)C(=O)N[C@@H](CO)C(=O)N[C@@H](CO)C(=O)N[C@H](C(=O)N[C@@H](CC(=O)O)C(=O)N[C@H](C(=O)NCC(=O)N[C@@H](CO)C(=O)N[C@@H](CC(=O)O)C(=O)N[C@H](C(=O)N1CCC[C@H]1C(N)=O)[C@@H](C)O)C(C)C)[C@@H](C)O)N(C)C(=O)[C@H](C)NC(=O)CN(C)C(=O)[C@H](Cc1ccccc1)NC(=O)[C@H](CO)NC(=O)[C@H](CO)NC(=O)[C@H](CCCNC(=N)N)NC(=O)[C@H](Cc1c[nH]cn1)NC(=O)[C@H](CC(C)C)NC(=O)[C@H](Cc1ccccc1)NC(=O)[C@H](CCC(=O)O)NC(=O)[C@H](C)NC(=O)[C@H](CC(C)C)NC(=O)[C@H](CCCNC(=N)N)NC(=O)[C@H](CC(=O)O)NC(=O)[C@@H](NC(=O)[C@H](C)NC(=O)[C@@H]1CSSC[C@H](NC(=O)[C@H](CCCNC(=N)N)NC(=O)CC[C@H](NC(=O)CCCCCCCCCCCCCCCCCCC(=O)O)C(=O)O)C(=O)NCC(=O)N[C@@H]([C@@H](C)O)C(=O)N[C@@H](C)C(=O)N[C@@H]([C@@H](C)O)C(=O)N1)[C@@H](C)O [Compound 158, [19CD]-isoGlu-RC()GTATC()ATDRLAEFLHRSSF-Gly(Me)-A-Ile(Me)-LSSTDVGSDTP-NH2] ({C20 diacid-γGlu}-RCGTATCATDRLAEFLHRSSF[Sar]A[NMeI]LSSTDVGSDTP-NH2; disulfide 2-7)
0.1 nM	0.14 nM	SS (SS indicates solubility ≥ 1mg/ml)	SS (SS indicates solubility ≥ 1mg/ml)	SS (SS indicates solubility ≥ 1mg/ml)	SS (SS indicates solubility ≥ 1mg/ml)	SS (SS indicates solubility ≥ 1mg/ml)	SS (SS indicates solubility ≥ 1mg/ml)	SS (SS indicates solubility ≥ 1mg/ml)	CC[C@H](C)[C@@H](C(=O)N[C@@H](CC(C)C)C(=O)N[C@@H](CO)C(=O)N[C@@H](CO)C(=O)N[C@H](C(=O)N[C@@H](CC(=O)O)C(=O)N[C@H](C(=O)NCC(=O)N[C@@H](CO)C(=O)N[C@@H](CC(=O)O)C(=O)N[C@H](C(=O)N1CCC[C@H]1C(N)=O)[C@@H](C)O)C(C)C)[C@@H](C)O)N(C)C(=O)[C@H](C)NC(=O)CN(C)C(=O)[C@H](Cc1ccccc1)NC(=O)[C@H](CO)NC(=O)[C@H](CO)NC(=O)[C@H](CO)NC(=O)[C@H](CO)NC(=O)[C@H](CCCNC(=N)N)NC(=O)[C@H](Cc1c[nH]cn1)NC(=O)[C@H](CC(C)C)NC(=O)[C@H](Cc1ccccc1)NC(=O)[C@H](CCC(=O)O)NC(=O)[C@H](C)NC(=O)[C@H](CC(C)C)NC(=O)[C@H](CCCNC(=N)N)NC(=O)[C@H](CCC(=O)O)NC(=O)[C@@H](NC(=O)[C@H](C)NC(=O)[C@@H]1CSSC[C@H](NC(=O)[C@H](CCCCN)NC(=O)[C@H](CCCCN)NC(=O)CC[C@H](NC(=O)CCCCCCCCCCCCCCCCCCC(=O)O)C(=O)O)C(=O)N[C@@H](CC(N)=O)C(=O)N[C@@H]([C@@H](C)O)C(=O)N[C@@H](C)C(=O)N[C@@H]([C@@H](C)O)C(=O)N1)[C@@H](C)O [Compound 159, [19CD]-isoGlu-KKC()NTATC()ATERLAEFLHRSSSSF-Gly(Me)-A-Ile(Me)-LSSTDVGSDTP-NH2] ({C20 diacid-γGlu}-KKCNTATCATERLAEFLHRSSSSF[Sar]A[NMeI]LSSTDVGSDTP-NH2; disulfide 3-8)
0.13 nM	0.14 nM	SS (SS indicates solubility ≥ 1mg/ml)	SS (SS indicates solubility ≥ 1mg/ml)	SS (SS indicates solubility ≥ 1mg/ml)	SS (SS indicates solubility ≥ 1mg/ml)	SS (SS indicates solubility ≥ 1mg/ml)	SS (SS indicates solubility ≥ 1mg/ml)	SS (SS indicates solubility ≥ 1mg/ml)	CC[C@H](C)[C@@H](C(=O)N[C@@H](CC(C)C)C(=O)N[C@@H](CO)C(=O)N[C@@H](CO)C(=O)N[C@H](C(=O)N[C@@H](CC(=O)O)C(=O)N[C@H](C(=O)NCC(=O)N[C@@H](CO)C(=O)N[C@@H](CC(=O)O)C(=O)N[C@H](C(=O)N1CCC[C@H]1C(N)=O)[C@@H](C)O)C(C)C)[C@@H](C)O)N(C)C(=O)[C@H](C)NC(=O)CN(C)C(=O)[C@H](Cc1ccccc1)NC(=O)[C@H](CO)NC(=O)[C@H](CO)NC(=O)[C@H](CO)NC(=O)[C@H](CO)NC(=O)[C@H](CCCNC(=N)N)NC(=O)[C@H](Cc1c[nH]cn1)NC(=O)[C@H](CC(C)C)NC(=O)[C@H](Cc1ccccc1)NC(=O)[C@H](CCC(=O)O)NC(=O)[C@H](C)NC(=O)[C@H](CC(C)C)NC(=O)[C@H](CCCNC(=N)N)NC(=O)[C@H](CCC(=O)O)NC(=O)[C@@H](NC(=O)[C@H](C)NC(=O)[C@@H]1CSSC[C@H](NC(=O)[C@H](CCCNC(=N)N)NC(=O)CC[C@H](NC(=O)CCCCCCCCCCCCCCCCCCC(=O)O)C(=O)O)C(=O)N[C@@H](CC(N)=O)C(=O)N[C@@H]([C@@H](C)O)C(=O)N[C@@H](C)C(=O)N[C@@H]([C@@H](C)O)C(=O)N1)[C@@H](C)O [Compound 160, [19CD]-isoGlu-RC()NTATC()ATERLAEFLHRSSSSF-Gly(Me)-A-Ile(Me)-LSSTDVGSDTP-NH2] ({C20 diacid-γGlu}-RCNTATCATERLAEFLHRSSSSF[Sar]A[NMeI]LSSTDVGSDTP-NH2; disulfide 2-7)
